Source: ChEMBL document CHEMBL1201862, “PubChem BioAssay data set” (2004)
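These data come from cells grown in 96-well plates and exposed to compound for 48 hours at five concentrations. At the GI50, growth is halved.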 The source made the active and inactive calls. Rule as the data show it: active = GI50 up to about 1.1 µM and inactive = higher.

How the values were obtained:
Assay in all cases: NCI-60 cell line screen, 48 h
HCT-15 = system: HCT-15
A498 = system: A498
Hs-578T = system: Hs-578T
SK-OV-3 = system: SK-OV-3
CCRF-CEM = system: CCRF-CEM
ACHN = system: ACHN
LOX IMVI = system: LOX IMVI
NCI-H23 = system: NCI-H23
UO-31 = system: UO-31
UACC-257 = system: UACC-257
A549 = system: A549
OVCAR-5 = system: OVCAR-5
MDA-N = system: MDA-N
MDA-MB-231 = system: MDA-MB-231
MCF7 = system: MCF7
UACC-62 = system: UACC-62
CAKI-1 = system: CAKI-1
RPMI-8226 = system: RPMI-8226
HCC 2998 = system: HCC 2998
COLO 205 = system: COLO 205
SF-268 = system: SF-268
BT-549 = system: BT-549
OVCAR-8 = system: OVCAR-8
HOP-92 = system: HOP-92
HL-60 = system: HL-60
NCI-H460 = system: NCI-H460
U-251 = system: U-251
M14 = system: M14
SK-MEL-5 = system: SK-MEL-5
OVCAR-3 = system: OVCAR-3
NCI-H522 = system: NCI-H522
NCI/ADR-RES = system: NCI/ADR-RES
PC-3 = system: PC-3
SW-620 = system: SW-620
786-0 = system: 786-0
RXF 393 = system: RXF 393
IGROV-1 = system: IGROV-1
SN12C = system: SN12C
SK-MEL-28 = system: SK-MEL-28
SF-295 = system: SF-295
MDA-MB-435 = system: MDA-MB-435
NCI-H226 = system: NCI-H226
TK-10 = system: TK-10
SF-539 = system: SF-539
SK-MEL-2 = system: SK-MEL-2
SNB-75 = system: SNB-75
EKVX = system: EKVX
DU-145 = system: DU-145
KM12 = system: KM12
HCT-116 = system: HCT-116
HOP-62 = system: HOP-62
SNB-19 = system: SNB-19
MOLT-4 = system: MOLT-4
K562 = system: K562

## O=P(O)(O)c1ccccc1Oc1ccccc1
HCT-15
  GI50: > 100 µM
A498
  GI50: 3.95 µM (inactive)
Hs-578T
  GI50: > 100 µM (inactive)
SK-OV-3
  GI50: > 100 µM (inactive)
CCRF-CEM
  GI50: > 100 µM (inactive)
ACHN
  GI50: > 100 µM (inactive)
LOX IMVI
  GI50: > 100 µM (inactive)
NCI-H23
  GI50: > 100 µM (inactive)
UO-31
  GI50: > 100 µM (inactive)
UACC-257
  GI50: > 100 µM (inactive)
A549
  GI50: > 100 µM (inactive)
OVCAR-5
  GI50: > 100 µM (inactive)
MDA-N
  GI50: > 100 µM (inactive)
MDA-MB-231
  GI50: > 100 µM (inactive)
MCF7
  GI50: > 100 µM (inactive)
UACC-62
  GI50: > 100 µM (inactive)
CAKI-1
  GI50: > 100 µM (inactive)
RPMI-8226
  GI50: > 100 µM (inactive)
HCC 2998
  GI50: > 100 µM (inactive)
COLO 205
  GI50: > 100 µM (inactive)
SF-268
  GI50: > 100 µM (inactive)
BT-549
  GI50: > 100 µM (inactive)
OVCAR-8
  GI50: > 100 µM (inactive)
HOP-92
  GI50: > 100 µM (inactive)
HL-60
  GI50: > 100 µM (inactive)
NCI-H460
  GI50: > 100 µM (inactive)
U-251
  GI50: > 100 µM (inactive)
M14
  GI50: > 100 µM (inactive)
SK-MEL-5
  GI50: > 100 µM (inactive)
OVCAR-3
  GI50: > 100 µM (inactive)
NCI-H522
  GI50: > 100 µM (inactive)
NCI/ADR-RES
  GI50: > 100 µM (inactive)
PC-3
  GI50: > 100 µM (inactive)
SW-620
  GI50: > 100 µM (inactive)
786-0
  GI50: > 100 µM (inactive)
RXF 393
  GI50: > 100 µM (inactive)
IGROV-1
  GI50: > 100 µM (inactive)
SN12C
  GI50: > 100 µM (inactive)
SK-MEL-28
  GI50: > 100 µM (inactive)
SF-295
  GI50: > 100 µM (inactive)
MDA-MB-435
  GI50: > 100 µM (inactive)
NCI-H226
  GI50: > 100 µM (inactive)
TK-10
  GI50: > 100 µM (inactive)
SF-539
  GI50: > 100 µM (inactive)
SK-MEL-2
  GI50: > 100 µM (inactive)
SNB-75
  GI50: 30.3 µM (inactive)
EKVX
  GI50: > 100 µM (inactive)
DU-145
  GI50: > 100 µM (inactive)
KM12
  GI50: > 100 µM (inactive)
HCT-116
  GI50: > 100 µM (inactive)
HOP-62
  GI50: > 100 µM (inactive)
SNB-19
  GI50: > 100 µM (inactive)
MOLT-4
  GI50: > 100 µM (inactive)
K562
  GI50: > 100 µM (inactive)
